Measurements: US10273218B2, “BCL-3 inhibitors” (University College Cardiff Consultants Limited, priority 2014, dated 2019)

Test system: human breast cancer MDA-MB-231 xenograft
Assay: in vivo metastasis mouse Model 1 (seeding and early colonization of circulating tumour cells)
Set-up: species or system mice
Settings: 3.5 mg/Kg intraperitoneal daily for 10 days; relative luminescence of thoracic region
Protocol: In all experiments, each compound was administered by intraperitoneally at 3.5 mg/kg.
(§1) One model (Model 1) studied the effect of the compound's ability to inhibit the seeding and early colonization of circulating tumour cells at distal sites, most commonly in the lungs and liver. Human tumour cell lines were injected into the bloodstream of recipient mice, followed by single daily intraperitoneal injections of the compound (3.5 mg/kg in 1% DMSO) for 10 consecutive days. Tumour burden was monitored longitudinally for up to 8 weeks in vivo by live luminescence imaging, and subsequently histology performed on affected organs at the end of the experiment.
as §1, with “Model 1 tested” for “One model (Model 1) studied”, “Bcl3i compounds” for “the compound's ability”, “Bcl3 inhibitor” for “the compound”
The X axis represents the number of days after xenograft and the Y axis is the relative luminescence of the thoracic region by Xenon IVIS scanning of mice following injection of d-luciferin for 10 minutes.
MDA-MB-231 human breast cancer cells were used in each of the three xenograft models of metastatic breast cancer.

Q: For `CN1CCN(CCNC(=O)c2ccccc2NC(=O)c2ccccc2F)CC1` [Compound 49, 2-fluoro-N-(2-((2-(4-methylpiperazin-1-yl)ethyl)carbamoyl)phenyl)benzamide], which “potency of effect in Model 1 relative to compound 28” value is on record?
A: more potent effects than compound 28

Same assay, conditions: 3.5 mg/Kg intraperitoneal daily for 10 days; relative luminescence of thoracic region; versus controls and compound 12

Q: Which “inhibition of metastasis / tumour burden in Model 1” value does the source give for `COc1ccc(C(=O)Nc2cccc(F)c2C(=O)NCCN2CCOCC2)c(F)c1` [Compound 28] here?
A: significant reduction in tumour burden compared to controls but reduced effect compared to compound 12

Q: Which “inhibition of metastasis / tumour burden in Model 1” value does the source give for `CN1CCN(CCNC(=O)c2ccccc2NC(=O)c2ccccc2F)CC1` [Compound 49, 2-fluoro-N-(2-((2-(4-methylpiperazin-1-yl)ethyl)carbamoyl)phenyl)benzamide] here?
A: equivalent inhibition of metastasis in vivo to compound 12

Test system: MDA-MB-231-Luc highly metastatic human breast cancer cells
Assay: in vivo metastasis mouse model, disease free survival
Set-up: species or system Nude mice
Settings: 3.5 mg/Kg once daily for 10 days; MDA-MB-231-Luc i.v.; monitored up to 49 days
Protocol: Nude mice are injected i.v. with 200,000 highly metastatic human breast cancer cells expressing luciferase (MDA-MB-231-Luc) then are given a compound of Formula (I) or Formula (Ia) once daily for about 10 days and are monitored for tumours by total body scan using Xenogen-IVIS. Mice with a luciferase signal above background in repeated scans in any part of their torso are scored as having metastatic disease. Total light emission in the abdominal region is quantified at time points up to 49 days post surgery and plotted as mean total light yield.
Nude mice were injected i.v. with 200,000 highly metastatic human breast cancer cells expressing luciferase (MDA-MB-231-Luc) then given 3.5 mg/Kg of compound 12, reference compound A, or Reference compound B once daily for 10 days and monitored for tumours by total body scan using Xenogen-IVIS. Mice with a luciferase signal above background in repeated scans in any part of their torso were scored as having metastatic disease. Total light emission in abdominal region was quantified at time points up to 49 days post surgery and plotted as mean total light yield. Control n=12, Reference compound A n=10, Reference compound B n=4; compound 12 n=4.

Q: Which disease free survival does the source give for `COc1ccc(C(=O)Nc2ccccc2C(=O)NCCN2CCOCC2)cc1` [Reference compound B] here?
A: 50%

Q: Which disease free survival does the source give for `O=C(Nc1ccccc1C(=O)NCCN1CCOCC1)c1ccccc1F` [Reference compound A] here?
A: 70%

Test system: not given
Assay: not given
Settings: not given

Q: With `COc1ccc(C(=O)Nc2cc(OC)c(OC)cc2C(=O)NCCN2CCN(C)CC2)cc1` [Compound 61, 4,5-dimethoxy-2-(4-methoxybenzamido)-N-(2-(4-methylpiperazin-1-yl)ethyl)benzamide] as the molecule, how does the melting point read?
A: 70 °C

Q: For `COc1ccc(C(=O)Nc2cccc(F)c2C(=O)NCCN2CCOCC2)c(F)c1` [Compound 28], which melting point is on record?
A: 105 to 107 °C

Q: For `CN1CCN(CCNC(=O)c2ccccc2NC(=O)c2cccc(Cl)c2)CC1` [Compound 51, 2-(3-chlorobenzamido)-N-(2-(4-methylpiperazin-1-yl)ethyl) benzamide], which melting point is on record?
A: 104 °C

Q: With `O=C(Nc1ccccc1C(=O)NCCN1CCNCC1)c1ccc(Cl)cc1` [Compound 39, 2-(4-chlorobenzamido)-N-(2-(piperazin-1-yl)ethyl)benzamide] as the molecule, how does the melting point read?
A: 60 °C

Q: With `COc1cccc(C(=O)NCCCc2ccccc2)c1NC(=O)c1ccc2ccccc2c1` [Compound 120, N-(2-methoxy-6-((3-phenylpropyl)carbamoyl)phenyl)-2-naphthamide] as the molecule, how does the melting point read?
A: 152 to 154 °C

Q: For `O=C(Nc1ccccc1C(=O)NCCN1CCNCC1)c1ccc([N+](=O)[O-])cc1` [Compound 38, 2-(4-nitrobenzamido)-N-(2-(piperazin-1-yl)ethyl)benzamide], which melting point is on record?
A: 98 °C

Q: For `CN1CCN(CCNC(=O)c2ccccc2NC(=O)c2ccc([N+](=O)[O-])cc2)CC1` [Compound 48, N-(2-(4-methylpiperazin-1-yl)ethyl)-2-(4-nitrobenzamido) benzamide], which melting point is on record?
A: 122 °C

Q: With `O=C(Nc1ccccc1C(=O)NCCN1CCOCC1)c1ccc(C(F)(F)F)cc1` [Compound 11, N-(2-morpholinoethyl)-2-(4-(trifluoromethyl)benzamido) benzamide] as the molecule, how does the melting point read?
A: 99 to 101 °C

Q: For `COc1cccc(C(=O)NCCCN2CCOCC2)c1NC(=O)c1ccc2ccccc2c1` [Compound 121, N-(2-methoxy-6-(3-morpholinopropylcarbamoyl)phenyl)-2-naphthamide], which melting point is on record?
A: 140 to 142 °C

Q: Which melting point does the source give for `COc1ccc(C(=O)Nc2cc(OC)c(OC)c(OC)c2C(=O)NCCN2CCN(C)CC2)cc1` [Compound 62, 2,3,4-trimethoxy-6-(4-methoxybenzamido)-N-(2-(4-methylpiperazin-1-yl)ethyl)benzamide] here?
A: 115 °C

Q: For `COc1ccc(C(=O)Nc2ccncc2C(=O)NCCN2CCOCC2)cc1` [Compound 113, 4-(4-methoxybenzamido)-N-(2-morpholinoethyl)nicotinamide], which melting point is on record?
A: 105 to 107 °C

Q: For `O=C(Nc1ccccc1C(=O)NCCN1CCOCC1)c1cccc([N+](=O)[O-])c1` [Compound 146, N-(2-morpholinoethyl)-2-(3-nitrobenzamido)benzamide], which melting point is on record?
A: 147 to 149 °C

Q: With `COc1cccc(C(=O)NCCc2ccccc2)c1NC(=O)c1ccccc1F` [Compound 84, 2-(2-fluorobenzamido)-3-methoxy-N-phenethylbenzamide] as the molecule, how does the melting point read?
A: 130 to 132 °C

Q: With `COc1cccc(C(=O)NCCc2ccccc2)c1NC(=O)c1ccc(F)cc1` [Compound 86, 2-(4-fluorobenzamido)-3-methoxy-N-phenethylbenzamide] as the molecule, how does the melting point read?
A: 140 to 142 °C

Q: With `CN1CCN(CCNC(=O)c2ccccc2NC(=O)c2ccc(C(F)(F)F)cc2)CC1` [Compound 108] as the molecule, how does the melting point read?
A: 68 to 71 °C

Q: For `CN1CCN(CCNC(=O)c2ccccc2NC(=O)c2ccc(Cl)cc2)CC1` [Compound 52, 2-(4-chlorobenzamido)-N-(2-(4-methylpiperazin-1-yl)ethyl) benzamide], which melting point is on record?
A: 99 °C

Q: For `COc1cc(NC(=O)c2ccccc2F)c(C(=O)NCCN2CCN(C)CC2)c(OC)c1OC` [Compound 60, 6-(2-fluorobenzamido)-2,3,4-trimethoxy-N-(2-(4-methylpiperazin-1-yl)ethyl)benzamide], which melting point is on record?
A: 130 °C

Q: Which melting point does the source give for `COc1cc(NC(=O)c2ccccc2F)c(C(=O)NCCN2CCOCC2)cc1OC` [Compound 19, 2-(2-fluorobenzamido)-4,5-dimethoxy-N-(2-morpholinoethyl) benzamide] here?
A: 136 °C

Q: Which melting point does the source give for `CN1CCN(CCNC(=O)c2ccccc2NC(=O)c2ccccc2F)CC1` [Compound 49, 2-fluoro-N-(2-((2-(4-methylpiperazin-1-yl)ethyl)carbamoyl)phenyl)benzamide] here?
A: 116 °C

Q: With `COc1cc(NC(=O)c2ccccc2F)c(C(=O)NCCN2CCOCC2)c(OC)c1OC` [Compound 20, 6-(2-fluorobenzamido)-2,3,4-trimethoxy-N-(2-morpholinoethyl) benzamide] as the molecule, how does the melting point read?
A: 141 °C

Q: For `COc1cc(NC(=O)c2cccnc2)c(C(=O)NCCN2CCN(C)CC2)cc1OC` [Compound 64, N-(4,5-dimethoxy-2-((2-(4-methylpiperazin-1-yl)ethyl)carbamoyl)phenyl)nicotinamide], which melting point is on record?
A: 126 °C

Q: With `COc1ccc(C(=O)Nc2ccccc2C(=O)NCCN2CCNCC2)cc1` [Compound 42, 2-(4-methoxybenzamido)-N-(2-(piperazin-1-yl)ethyl)benzamide] as the molecule, how does the melting point read?
A: 91 °C

Q: With `COc1ccc(C(=O)Nc2cc(OC)c(OC)c(OC)c2C(=O)NCCN2CCOCC2)cc1` [Compound 27, 2,3,4-trimethoxy-6-(4-methoxybenzamido)-N-(2-morpholinoethyl)benzamide] as the molecule, how does the melting point read?
A: 143 °C

Q: With `CN1CCN(CCNC(=O)c2ccccc2NC(=O)c2cccnc2)CC1` [Compound 63, N-(2-((2-(4-methylpiperazin-1-yl)ethyl)carbamoyl)phenyl) nicotinamide] as the molecule, how does the melting point read?
A: 99 °C

Q: Which melting point does the source give for `O=C(Nc1ccccc1C(=O)NCCN1CCNCC1)c1cc(F)cc(F)c1` [Compound 43, 3,5-difluoro-N-(2-((2-(piperazin-1-yl)ethyl)carbamoyl)phenyl) benzamide] here?
A: 68 °C

Q: With `O=C(NCCCc1ccccc1)c1ccccc1NC(=O)c1cccc2ccccc12` [Compound 97, N-(2-((3-phenylpropyl)carbamoyl)phenyl)-1-naphthamide] as the molecule, how does the melting point read?
A: 98 to 100 °C

Q: For `COc1cccc(C(=O)NCCN2CCOCC2)c1NC(=O)c1cccc(F)c1` [Compound 17, 2-(3-fluorobenzamido)-3-methoxy-N-(2-morpholinoethyl) benzamide], which melting point is on record?
A: 128 to 131 °C

Q: With `O=C(NCCN1CCOCC1)c1ccccc1NC(=O)c1ccccc1C(F)(F)F` [Compound 9, N-(2-morpholinoethyl)-2-(2-(trifluoromethyl)benzamido) benzamide] as the molecule, how does the melting point read?
A: 90 to 92 °C

Q: With `O=C(Nc1ccccc1C(=O)NCCc1ccccc1)c1cccnc1` [Compound 94, N-(2-(phenethylcarbamoyl)phenyl)nicotinamide] as the molecule, how does the melting point read?
A: 94 °C

Q: For `O=C(Nc1ccccc1C(=O)NCCc1ccccc1)c1ccc(Cl)cc1` [Compound 76, 2-(4-chlorobenzamido)-N-phenethylbenzamide], which melting point is on record?
A: 104 to 106 °C

Q: With `COc1ccc(C(=O)Nc2c(OC)cccc2C(=O)NCCc2ccccc2)c(OC)c1` [Compound 93, 2-(2,4-dimethoxybenzamido)-3-methoxy-N-phenethylbenzamide] as the molecule, how does the melting point read?
A: 132 to 134 °C

Q: With `COc1cccc(C(=O)NCCCc2ccccc2)c1NC(=O)c1cccc2ccccc12` [Compound 125, N-(2-methoxy-6-((3-phenylpropyl)carbamoyl)phenyl)-1-naphthamide] as the molecule, how does the melting point read?
A: 150 to 152 °C

Q: Which melting point does the source give for `CN1CCN(CCCNC(=O)c2ccccc2NC(=O)c2ccc3ccccc3c2)CC1` [Compound 69, N-(2-((3-(4-methylpiperazin-1-yl)propyl)carbamoyl)phenyl)-2-naphthamide] here?
A: 71 to 72 °C

Q: For `O=C(NCCN1CCNCC1)c1ccccc1NC(=O)c1c(F)cccc1F` [Compound 44, 2,6-difluoro-N-(2-((2-(piperazin-1-yl)ethyl)carbamoyl)phenyl) benzamide], which melting point is on record?
A: 79 °C
